Read-outs that look alike come from different tables or passages of the source.
Experiment: Type B (low volume, EC formulation, track sprayer 200 L/ha) assay, leaf blotch of wheat, SEPTTR field isolate (FI SEPTTR)
Assay type: in vivo, Mycosphaerella graminicola on wheat plants (variety Yuma)
Conditions: Zymoseptoria tritici, 72 h
Description: Example A: Evaluation of Fungicidal Activity: Leaf Blotch of Wheat (Mycosphaerella graminicola; Anamorph: Septoria tritici; Bayer Code SEPTTR)
For Type A assays, technical grades of the experimental fungicides in Table 4 below were dissolved in acetone, and then mixed with nine volumes of water containing 110 ppm Triton X-100. The fungicide solutions were applied onto wheat seedlings using an automated booth sprayer. For Type B assays, emulsifiable concentrate (EC) formulations of technical grades of the experimental fungicides in Table 4 below were prepared at 10% (w/v), and then mixed with 150 volumes of 0.1% Trycol 5941. These solutions were applied onto wheat seedlings using an automated track sprayer at 200 L/ha. All sprayed plants were allowed to air dry prior to further handling.
Wheat plants (variety Yuma) were grown from seed in a greenhouse in 50% mineral soil/50% soil-less Metro mix until the first leaf was fully emerged, with 7-10 seedlings per pot. Prior to or after application of experimental fungicides, plants were inoculated either with spores of a standard laboratory SEPTTR isolate (SI SEPTTR) or with spores from a SEPTTR field isolate collected from Wellsbourne, England in 2012 (FI SEPTTR). After inoculation the plants were kept for 3 days at 20° C. in 100% relative humidity (one day in a dark dew chamber followed by two days in a lighted dew chamber). Plants were then transferred to a 20° C. greenhouse for disease development. When disease symptoms were fully expressed on untreated plants, infection levels on treated plants were assessed on a scale of 0 to 100 percent disease severity. Percent disease control was calculated using the ratio of disease severity on treated plants relative to untreated plants.

[1] = field isolate, low volume EC, 100 g/ha, 3 Day Curative, wheat (Yuma), read-out: Disease Control, FI SEPTTR Type B Assay (100 g/ha) 3 DC
[2] = field isolate, low volume EC, 100 g/ha, 3 Day Protectant, wheat (Yuma), read-out: Disease Control, FI SEPTTR Type B Assay (100 g/ha) 3 DP
[3] = SEPTTR field isolate, low volume Type B assay, 100 g/ha, 3 Day Curative, wheat leaf blotch, read-out: Disease Control, FI SEPTTR Type B Assay (100 g/ha) 3 DC
[4] = SEPTTR field isolate, low volume Type B assay, 100 g/ha, 3 Day Protectant, wheat leaf blotch, read-out: Disease Control, FI SEPTTR Type B Assay (100 g/ha) 3 DP

Row | Compound | pest or weed control at 100 g/ha [1] [%] | pest or weed control at 100 g/ha [2] [%] | pest or weed control at 100 g/ha [3] [%] | pest or weed control at 100 g/ha [4] [%] | other results
1 | C#CCOC(C#CC)(c1cncnc1)c1ccc(-c2ccc(OC(F)(F)F)cc2F)cn1 (stereo not drawn) [Compound 248] | < 40 | 40 to 59 |  |  | 
2 | COC(c1cncnc1)(c1ccc(-c2ccc(OC(F)(F)F)cc2F)cn1)C(C)C (stereo not drawn) [Compound 249] | 60 to 79 | 80 to 100 |  |  | 
3 | C#CCOC(c1cncnc1)(c1ccc(-c2ccc(OC(F)(F)F)cc2F)cn1)C1CC1 (stereo not drawn) [Compound 250] | < 40 | 80 to 100 |  |  | 
4 | CC(C)(C)C(O)(c1cncnc1)c1ccc(-c2ccc(C3(C#N)CCC3)cc2F)cn1 (stereo not drawn) [Compound 251] | 80 to 100 | 80 to 100 |  |  | 
5 | Cc1cc(C(C)(C)C#N)cc(C)c1-c1ccc(C(O)(c2cncnc2)C(C)(C)C)nc1 (stereo not drawn) [Compound 252] | 80 to 100 | 80 to 100 |  |  | 
6 | COC(c1cncnc1)(c1ccc(-c2ccc(OCC(F)(F)F)nc2)cn1)C(C)(C)C (stereo not drawn) [Compound 253] | 80 to 100 | 80 to 100 |  |  | 
7 | C#CCOC(c1cncnc1)(c1ccc(-c2ccc(OC(F)(F)F)cc2)cn1)C1CC1 (stereo not drawn) [Compound 255] | < 40 | 60 to 79 |  |  | 
8 | COc1ncncc1C(O)(c1ccc(-c2ccc(C(C)(C)C#N)cc2F)cn1)C(C)(C)C (stereo not drawn) [Compound 256] | 80 to 100 | 80 to 100 |  |  | 
9 | COC(c1cncnc1)(c1ccc(-c2ccc(OCC(F)(F)F)cc2)cn1)C(C)(C)C (stereo not drawn) [Compound 257] |  |  | 60 to 79 | 60 to 79 | 
10 | CCC(O)(c1cncnc1)c1ccc(-c2ccc(OC(F)(F)F)cc2)cn1 (stereo not drawn) [Compound 258] |  |  | < 40 | 60 to 79 | 
11 | CC(C)(C#N)c1ccc(-c2ccc(C(O[Si](C)(C)C)(c3cncnc3)C(C)(C)C)nc2)cc1 (stereo not drawn) [Compound 259] |  |  |  |  | pest or weed control at 100 g/ha (read-out: Disease Control, FI SEPTTR Type B Assay (100 g/ha) 3 DC): 60 to 79%; pest or weed control at 100 g/ha (read-out: Disease Control, FI SEPTTR Type B Assay (100 g/ha) 3 DP): 80 to 100%
12 | C#CCOC(CC)(c1cncnc1)c1ccc(-c2ccc(OC(F)(F)F)cc2)cn1 (stereo not drawn) [Compound 260] |  |  | < 40 | 40 to 59 | 
13 | COC(c1cncnc1)(c1ccc(-c2ccc(OC(F)(F)F)cc2C)cn1)C(C)(C)C (stereo not drawn) [Compound 261] |  |  | 80 to 100 | 80 to 100 | 
14 | CC(C)(C#N)c1ccc(-c2ccc(C(O)(c3cncc(F)c3)C(C)(C)C)nc2)cc1 (stereo not drawn) [Compound 262] |  |  | 80 to 100 | 80 to 100 | 
15 | COc1cc(C(C)(C)C#N)ccc1-c1ccc(C(O)(c2cncnc2)C(C)(C)C)nc1 (stereo not drawn) [Compound 263] |  |  | 80 to 100 | 80 to 100 | 
16 | CCC(C#N)(CC)c1ccc(-c2ccc(C(O)(c3cncnc3)C(C)(C)C)nc2)c(C)c1 (stereo not drawn) [Compound 264] |  |  | 80 to 100 | 80 to 100 | 
17 | CC(C)(C#N)c1ccc(-c2ccc(C(O)(c3cncnc3)C(C)(C)C)nc2)c(Cl)c1 (stereo not drawn) [Compound 265] |  |  | 80 to 100 | 80 to 100 | 
18 | CC#CC(O)(c1cncnc1)c1ccc(-c2ccc(OC(F)(F)F)cc2)cn1 (stereo not drawn) [Compound 266] |  |  | < 40 | 60 to 79 | 
19 | COC(c1cncnc1)(c1ccc(-c2ccc(C(C)(C)C#N)cc2C)cn1)C(C)(C)C (stereo not drawn) [Compound 267] |  |  | 60 to 79 | 80 to 100 | 
20 | CCC(C#N)(CC)c1ccc(-c2ccc(C(O)(c3cncnc3)C(C)(C)C)nc2)c(F)c1 (stereo not drawn) [Compound 268] |  |  | 80 to 100 | 80 to 100 | 
21 | CCC(OC)(c1cncnc1)c1ccc(-c2ccc(OC(F)(F)F)cc2F)cn1 (stereo not drawn) [Compound 269] |  |  | 40 to 59 | 80 to 100 | 
22 | C#CCOC(C#CC)(c1cncnc1)c1ccc(-c2ccc(OC(F)(F)F)cc2)cn1 (stereo not drawn) [Compound 270] |  |  | < 40 | 40 to 59 | 
23 | CC(C)(C)C(O)(c1ccc(-c2ccc(OC(F)(F)F)cc2F)cn1)c1cnccn1 (stereo not drawn) [Compound 271] |  |  | < 40 | 80 to 100 | 
24 | CCOC(c1cncnc1)(c1ccc(-c2ccc(OC(F)(F)F)cc2)cn1)C(C)C (stereo not drawn) [Compound 272] |  |  | < 40 | 60 to 79 | 

— patent US10167300B2, “Metalloenzyme inhibitor compounds as fungicides” (priority 2014, dated 2019)
